Here are results for 20 molecules from patent US20230373972A1, “PIPERAZINE DERIVATIVE, PREPARATION METHOD THEREFOR AND USE THEREOF” (Zhejiang Hisun Pharmaceutical Co., Ltd., priority 2020, published 2023).

The first experiment deals with T1, Native human Factor XIa protease (Homo sapiens, UniProt P03951).
T1 construct: The Native human Factor XIa protease was purchased from Abcam; purchased Abcam ab62411
T1 sequence (P03951 388-625 limits assumed): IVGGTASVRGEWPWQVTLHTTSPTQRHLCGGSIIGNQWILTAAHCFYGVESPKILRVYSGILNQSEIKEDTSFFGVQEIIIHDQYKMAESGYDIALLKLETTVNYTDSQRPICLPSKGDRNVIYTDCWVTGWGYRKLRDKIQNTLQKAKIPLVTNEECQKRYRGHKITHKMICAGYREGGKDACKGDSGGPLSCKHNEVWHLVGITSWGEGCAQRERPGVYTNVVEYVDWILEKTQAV
T1 sequence (P03951 19-387 partner limits assumed): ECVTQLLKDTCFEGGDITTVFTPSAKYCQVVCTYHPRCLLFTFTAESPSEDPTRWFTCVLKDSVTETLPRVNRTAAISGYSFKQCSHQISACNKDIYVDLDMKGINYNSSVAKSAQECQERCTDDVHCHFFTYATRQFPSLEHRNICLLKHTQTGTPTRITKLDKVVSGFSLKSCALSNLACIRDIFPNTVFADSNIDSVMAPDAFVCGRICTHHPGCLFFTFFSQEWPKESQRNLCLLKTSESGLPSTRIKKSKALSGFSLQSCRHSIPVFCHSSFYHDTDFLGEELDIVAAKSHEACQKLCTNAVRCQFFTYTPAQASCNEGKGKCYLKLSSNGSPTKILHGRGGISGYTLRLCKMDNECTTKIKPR
The experiment in a line: Inhibition of activity of Factor XIa protease (chromogenic substrate S-2366). Type of experiment: biochemical. The settings on record: S-2366 1 mM, 37° C. 10 minutes, absorption at 405 nm. The text has this: The following method was used to determine an inhibition degree of the compound of the present invention on an activity of Native human Factor XIa protease in vitro. In the method, a Factor XIa chromogenic substrate was used to test the inhibition degree on the activity of the Factor XIa protease. The Native human Factor XIa protease was purchased from Abcam (article number ab62411), and S-2366 was purchased from Chromogenix (article number 82109039). An experimental process was briefly described as follows: a test compound was dissolved in DMSO to prepare a 10 mM storage solution first, then the compound was diluted with a Factor XIa reaction buffer (100 mM Tris-HCl, 200 mM NaCl, 0.02% Tween 20, pH 7.4) by a quadruple gradient, and a final concentration of the test compound in a reaction system ranged from 10,000 nM to […]. The reaction was carried out in a 384-well microplate. 2 μL of the test compounds at different concentrations diluted with the reaction buffer were added to wells first, and 2 μL of 1% DMSO (a final concentration of DMSO in the reaction system was 0.1%) was used to replace blank and control wells. Subsequently, 8 μL of enzyme working solution (a final concentration of Factor XIa was […]) was added to each well, and 8 μL of Factor XIa reaction buffer was used to replace the blank well, centrifuged for 30 seconds, and incubated on ice for 5 minutes. Finally, 10 μL of substrate working solution (a final concentration of S-2366 was 1 mM) was added to each well, and centrifuged for 30 seconds, and the reaction was started. The solution was incubated at 37° C. for 10 minutes to determine a light absorption value at 405 nm. By comparing with a light absorption value of the control group (0.1% DMSO), a percentage inhibition rate of the compound at each concentration was calculated, and nonlinear regression analysis was carried out on value-inhibition rate with the concentration of the compound by GraphPad Prism 5 software, so as to obtain an IC50 value of the compound, as shown in Table 1.
As to `CCOC(=O)c1ccc(NC(=O)C(Cc2ccccc2)N2CC(=O)N(c3cc(Cl)ccc3-n3cnnn3)CC2=O)cc1` (centres unmarked) [Example 4, Ethyl 4-(2-(4-(5-chloro-2-(1H-tetrazol-1-yl)phenyl)-2,5-dioxopiperazin-1-yl)-3-phenylpropanamido) benzoate], the IC50 is 49.8 nM.

In turn, `COC(=O)N1CCc2cc(NC(=O)C(Cc3ccccc3)N3CC(=O)N(c4cc(Cl)ccc4-n4cnnn4)CC3=O)ccc21` (centres unmarked) [Example 8, Methyl 5-(2-(4-(5-chloro-2-(1H-tetrazol-1-yl)phenyl)-2,5-dioxopiperazin-1-yl)-3-phenylpropanamido)indoline-1-carboxylate] returned an IC50 of 17.7 nM. The molecule `O=C(Nc1ccc(N2CCCC2=O)cc1)C(Cc1ccccc1)N1CC(=O)N(c2cc(Cl)ccc2-n2cnnn2)CC1=O` (centres unmarked) [Example 10, 2-(4-(5-Chloro-2-(1H-tetrazol-1-yl)phenyl)-2,5-dioxopiperazin-1-yl)-N-(4-(2-oxopyrrolidin-1-yl)phenyl)-3-phenylpropanamide] gave an IC50 of 43.9 nM.

The test system of the next experiment is human plasma. Kind of experiment: In-vitro anticoagulation on human plasma (APTT kit, coagulation time). The settings on record: concentration of the compound when the coagulation time (APTT) was prolonged twice. The method, then: The following method was used to determine the in-vitro anticoagulation of the compound of the present invention in the human plasma. In the method, an APTT kit of the MediRox company was used to test. The APTT kit was purchased from MediRox (article number MRX930), and the human plasma was prepared internally.
The preparation of the human plasma was briefly described as follows: human plasma was collected in a blood collection tube containing sodium citrate, and centrifuged at 3,000 rpm for 10 minutes at room temperature, and plasma was collected, and packaged separately and stored at −80° C.
An APTT test process was briefly described as follows: a test compound was dissolved in DMSO to prepare a 10 mM storage solution first, then the test compound was diluted with DMSO by a triple gradient, and a final concentration of the test compound in a reaction system ranged from 217 μM to 0.03 μM. 4 μL, of test compounds at different concentrations diluted with DMSO were added to a centrifuge tube containing 180 μL of plasma, and 4 μL of DMSO was added to a blank group, shaken and mixed evenly, and incubated at 37° C. for 5 minutes. Subsequently, an APTT reagent was placed in a reagent holder according to instrument requirements, the incubated plasma sample was placed in a detection position of a coagulation analyzer, and a coagulation time was determined and recorded (s). With a final concentration of the compound as an abscissa and Ratio (Ratio=TiT0, wherein T0 was a coagulation time of a blank control, and Ti was a coagulation time of a compound to be tested) as an ordinate, a coagulation dose-effect curve was drawn by Graph Pad Prisms, and a concentration of the compound when the coagulation time was prolonged twice was calculated, which was namely a CT2 value, as shown in Table 2.
Regarding `N#Cc1ccc(NC(=O)C(Cc2ccccc2)N2CC(=O)N(c3cc(Cl)ccc3-n3cnnn3)CC2=O)cc1` (centres unmarked) [Example 16, 2-(4-(5-chloro-2-(1H-tetrazol-1-yl)phenyl)-2,5-dioxopiperazin-1-yl)-N-(4-cyanophenyl)-3-phenylpropanamide], the “CT2” value amounted to 15.6 µM.

Turning to `O=C(Nc1ccc2ccnn2c1)C(Cc1ccccc1)N1CC(=O)N(c2cc(Cl)ccc2-n2cnnn2)CC1=O` (centres unmarked) [Example 22, 2-(4-(5-Chloro-2-(1H-tetrazol-1-yl)phenyl)-2,5-dioxopiperazin-1-yl)-3-phenyl-N-(pyrazolo[1.5-a]pyridin-6-yl)propanamide], the “CT2” value stood at 16.0 µM. Still for that read-out and setting: as for `CNC(=O)c1ccc(NC(=O)C(Cc2ccccc2)N2CC(=O)N(c3cc(Cl)ccc3-n3cnnn3)CC2=O)cn1` (centres unmarked) [Example 29, 5-(2-(4-(5-Chloro-2-(1H-tetrazol-1-yl)phenyl)-2,5-dioxopiperazin-1-yl)-3-phenylpropanamido)-N-methylpicolinamide], the figure is 6.7 µM; as for `COCCC(C(=O)Nc1ccc2nn(C)cc2c1)N1CC(=O)N(c2cc(Cl)ccc2-n2cnnn2)CC1=O` (centres unmarked) [Example 32, 2-(4-(5-Chloro-2-(1H-tetrazol-1-yl)phenyl)-2,5-dioxopiperazin-1-yl)-4-methoxy-N-(2-methyl-2H-indazol-5-yl)butanamide], 6.3 µM. In the case of `Cn1cc2cc(NC(=O)C(CC3CCC3)N3CC(=O)N(c4cc(Cl)ccc4-n4cnnn4)CC3=O)ccc2n1` (centres unmarked) [Example 39, 2-(4-(5-Chloro-2-(1H-tetrazol-1-yl)phenyl)-2,5-dioxopiperazin-1-yl)-3-cyclobutyl-N-(2-methyl-2H-indazol-5-yl)propanamide], the “CT2” value stood at 12.7 µM. The same measure, in the same setting: as for `CNC(=O)c1ccc(NC(=O)C(Cc2ccccc2)N2CC(=O)N(c3cc(Cl)ccc3-n3cc(Cl)nn3)CC2=O)cc1F` (centres unmarked) [Example 42, 4-(2-(4-(5-Chloro-2-(4-chloro-1H-1,2,3-triazol-1-yl)phenyl)-2,5-dioxopiperazin-1-yl)-3-phenylpropanamido)-2-fluoro-N-methylbenzamide], the figure is 16.3 µM; as for `Cn1cc2cc(NC(=O)C(Cc3cccnc3)N3CC(=O)N(c4cc(Cl)ccc4-n4cc(Cl)nn4)CC3=O)ccc2n1` (centres unmarked) [Example 43, 2-(4-(5-Chloro-2-(4-chloro-1H-1,2,3-triazol-1-yl)phenyl)-2,5-dioxopiperazin-1-yl)-N-(2-methyl-2H-indazol-5-yl)-3-(pyridin-3-yl)propanamide], 19.6 µM. On the same count and under the same terms, next, `Cn1cc2cc(NC(=O)C(Cc3cccc(F)c3)N3CC(=O)N(c4cc(Cl)ccc4-n4cc(Cl)nn4)CC3=O)ccc2n1` (centres unmarked) [Example 46, 2-(4-(5-Chloro-2-(4-chloro-1H-1,2,3-triazol-1-yl)phenyl)-2,5-dioxopiperazin-1-yl)-3-(3-fluorophenyl)-N-(2-methyl-2H-indazol-5-yl)propanamide]: 19.1 µM; `Cn1cc2cc(NC(=O)C(Cc3ccncc3)N3CC(=O)N(c4cc(Cl)ccc4-n4cc(Cl)nn4)CC3=O)ccc2n1` (centres unmarked) [Example 105, 2-(4-(5-chloro-2-(4-chloro-1H-1,2,3-triazol-1-yl)phenyl)-2,5-dioxopiperazin-1-yl)-N-(2-methyl-2H-indazol-5-yl)-3-(pyridin-4-yl)propanamide]: 10.1 µM; `Cn1cc2cc(NC(=O)C(CC3CCC3)N3CC(=O)N(c4cc(Cl)ccc4-n4cc(Cl)nn4)CC3=O)ccc2n1` (centres unmarked) [Example 116, 2-(4-(5-chloro-2-(4-chloro-1H-1,2,3-triazol-1-yl)phenyl)-2,5-dioxopiperazin-1-yl)-3-cyclobutyl-N-(2-methyl-2H-indazol-5-yl)propanamide]: 14.0 µM. Take `Cn1cc2cc(NC(=O)C(CCOC(C)(C)C)N3CC(=O)N(c4cc(Cl)ccc4-n4cc(Cl)nn4)CC3=O)ccc2n1` (centres unmarked) [Example 122, 4-(tert-butoxy)-2-(4-(5-chloro-2-(4-chloro-1H-1,2,3-triazol-1-yl)phenyl)-2,5-dioxopiperazin-1-yl)-N-(2-methyl-2H-indazol-5-yl)butanamide]: the “CT2” value came out at 18.7 µM. On the same count and under the same terms, as for `Cn1cc2cc(NC(=O)C(Cc3ccn(C4CC4)n3)N3CC(=O)N(c4cc(Cl)ccc4-n4cc(Cl)nn4)CC3=O)ccc2n1` (centres unmarked) [Example 123, 2-(4-(5-chloro-2-(4-chloro-1H-1,2,3-triazol-1-yl)phenyl)-2,5-dioxopiperazin-1-yl)-3-(1-cyclopropyl-1H-pyrazol-3-yl)-N-(2-methyl-2H-indazol-5-yl)propanamide], the figure is 12.8 µM.

`Cn1cc(CC(C(=O)Nc2ccc3nn(C)cc3c2)N2CC(=O)N(c3cc(Cl)ccc3-n3cc(Cl)nn3)CC2=O)cn1` (centres unmarked) [Example 131, 2-(4-(5-chloro-2-(4-chloro-1H-1,2,3-triazol-1-yl)phenyl)-2,5-dioxopiperazin-1-yl)-3-(1-methyl-1H-pyrazol-4-yl)-N-(2-methyl-2H-indazol-5-yl)propanamide]: the “CT2” value was 11.5 µM. On the same count and under the same terms, next, `Cn1cc2cc(NC(=O)C(Cc3ccn(C(F)F)n3)N3CC(=O)N(c4cc(Cl)ccc4-n4cc(Cl)nn4)CC3=O)ccc2n1` (centres unmarked) [Example 132, 2-(4-(5-chloro-2-(4-chloro-1H-1,2,3-triazol-1-yl)phenyl)-2,5-dioxopiperazin-1-yl)-3-(1-(difluoromethyl)-1H-pyrazol-3-yl)-N-(2-methyl-2H-indazol-5-yl)propanamide]: 12.7 µM; `[2H]C([2H])([2H])n1ccc(CC(C(=O)Nc2ccc3nn(C)cc3c2)N2CC(=O)N(c3cc(Cl)ccc3-n3cc(Cl)nn3)CC2=O)n1` (centres unmarked) [Example 133, 2-(4-(5-chloro-2-(4-chloro-1H-1,2,3-triazol-1-yl)phenyl)-2,5-dioxopiperazin-1-yl)-N-(2-methyl-2H-indazol-5-yl)-3-(1-(methyl-d3)-1H-pyrazol-3-yl)propanamide]: 14.8 µM. As to `CNC(=O)c1ccc(NC(=O)C(Cc2ccc(F)cc2)N2CC(=O)N(c3cc(Cl)ccc3-n3cc(Cl)nn3)CC2=O)cc1F` (centres unmarked) [Example 134, 4-(2-(4-(5-chloro-2-(4-chloro-1H-1,2,3-triazol-1-yl)phenyl)-2,5-dioxopiperazin-1-yl)-3-(4-fluorophenyl)propanamido)-2-fluoro-N-methylbenzamide], the “CT2” value came out at 19.4 µM. `NC(=O)c1ccc(NC(=O)C(Cc2ccc(F)cc2)N2CC(=O)N(c3cc(Cl)ccc3-n3cc(Cl)nn3)CC2=O)cc1F` (centres unmarked) [Example 135, 4-(2-(4-(5-chloro-2-(4-chloro-1H-1,2,3-triazol-1-yl)phenyl)-2,5-dioxopiperazin-1-yl)-3-(4-fluorophenyl)propanamido)-2-fluorobenzamide]: the “CT2” value is 19.2 µM.
